Experimental data published in patent US20210379068A1, “METHODS AND MATERIALS FOR TREATING NEUROPSYCHIATRIC DISORDERS” (Mayo Foundation for Medical Education and Research, priority 2018, published 2021).
Entries after “also recorded” stand apart in the source; their conditions may differ.

Key:
Format in all cases: in vivo, mouse
[1] = test system: SASP factors; assay: Circulating cytokines in blood plasma, INK-ATTAC mice on HFD; conditions: HFD-fed INK-ATTAC mice; AP vs vehicle
Procedure: (§1) INK-ATTAC mice were injected intraperitoneally (i.p.) with AP20187 (10 mg/kg) or vehicle for 3 days every 2 weeks for a total of 8-10 weeks.
Serum levels of cytokines: Eotaxin, G-Csf, Tnf-α, Il-6, Ifn-γ, Il-1α, Il-1β, Il-17, Il-2, Kc/Cxcl1, Mcp-1, M-Csf, Mig, Mip-1α, and Mip-1β were determined using a Multiplexing LASER Bead Assay (Mouse Cytokine Array/Chemokine Array 31-Plex (MD31), Eve Technologies; Canada). Blood was withdrawn from mice by punctuation of the sub-mandibular vein at the day of dissection before an animal was sacrificed. 50 μL of serum were shipped to Eve Technologies on dry ice. Due to high variability of data an unbiased elimination of outliers was performed using ROUT's method (Graphpad 7 Prism). The same panel was used to detect SASP in MAF and 50 μl of media was shipped to Eve Technologies on dry ice.

[2] = test system: senescent cells in cortex, cerebellum, and hippocampus; assay: Senescence markers in cortex, cerebellum and hippocampus, INK-ATTAC mice; conditions: obese and lean INK-ATTAC mice with and without AP
Procedure: as §1
Total RNA was extracted from white adipose tissue and brain using Trizol (Life Technologies, Carlsbad, Calif.) and reverse transcribed to cDNA with a M-MLV Reverse Transcriptase kit (Life Technologies). Real-time PCR was performed in a 7500 Fast Real Time PCR System (Applied Biosystems, Foster City, Calif.) using TaqMan Fast Universal PCR Master Mix (Life Technologies) and predesigned primers and probes from Applied Biosystems (Assay ID: Mm00494449_m1 [CDKN2A]; Mm04205640_g1 [CDKN1A]; Mm00446191_m1 [IL6]). Target gene expression was expressed as 2-ΔΔCT by the comparative CT method and normalized to the expression of TATA-binding protein (TBP) (Assay ID: Mm01277042 ml [TBP]).
(§2) Paraffin sections were deparaffinized with Histoclear and hydrated in an ethanol gradient followed by water and PBS. Antigen was retrieved by incubation in 0.01M citrate buffer (pH 6.0) at 95° C. for 10 minutes. Slides were placed in blocking buffer (1:60 normal goat serum [S-1000, Vector Laboratories] in 0.1% BSA/PBS) for 60 minutes at room temperature. […] Primary antibodies used (Table 2) were diluted in blocking buffer and applied overnight at 4° C. The next day, slides were washed 3 times with PBS and incubated for 30 minutes with secondary goat, anti-rabbit antibody (1:200; Vector Laboratories #BA-1000) for TAF staining or for 60 minutes with secondary Alexa antibody (Table 1). […]
A single, 3 μm-thick section per mouse was used for TAF staining, while for Dcx and Plin2 staining was performed on three 10 μm-thick sections 80 μm-apart. To quantify periventricular lipid accumulation 10-30 images in the periventricular region were taken using the DM5500 widefield fluorescence microscope from Leica with a 10× (for frequency of periventricular glia) or ×40 (for ALISE phenotype of ependymal cells) objective lens. Number of Plin2-positive cells (for frequency of ALISE-positive periventricular glia) or area of Plin2-positive vesicles (for ALISE phenotype of ependymal cells) was assessed using ImageJ software. For identity assessment of Plin2+ cells, 10 μm-thick sections were stained with combination of antibodies for Iba1 (secondary antibody conjugated with Alexa Fluor 488), Plin2 (secondary antibody conjugated with Alexa Fluor 594), and Vimentin (secondary antibody conjugated with Alexa Fluor 647) and quantified for frequency of Plin2+ astrocytes (Iba1−, Vim+) and microglia (Iba1+) in the periventricular region. […] For TAF quantification in depth Z stacking was used (images were captured as stacks separated by 0.4 μm with ×63 objective) followed by ImageJ analysis.

[3] = test system: senescent cells in the amygdala; assay: Telomere associated foci (TAF) in basomedial layer of the amygdala, INK-ATTAC mice; conditions: HFD INK-ATTAC mice, AP20187 vs vehicle
Procedure: as §1
as §2, with “1). For TAF staining, Fluorescein-Avidin in PBS (1:500; #A-2011, Vector Lab) was applied to each sample for 20 minutes. Slides were washed 3 times in PBS, which was followed by FISH for TAF detection.” for “1).”
(§3) A single, 3 μm-thick section per mouse was used for TAF staining, while for Dcx and Plin2 staining was performed on three 10 μm-thick sections 80 μm-apart. To quantify periventricular lipid accumulation 10-30 images in the periventricular region were taken using the DM5500 widefield fluorescence microscope from Leica with a 10× (for frequency of periventricular glia) or ×40 (for ALISE phenotype of ependymal cells) objective lens. Number of Plin2-positive cells (for frequency of ALISE-positive periventricular glia) or area of Plin2-positive vesicles (for ALISE phenotype of ependymal cells) was assessed using ImageJ software. For identity assessment of Plin2+ cells, 10 μm-thick sections were stained with combination of antibodies for Iba1 (secondary antibody conjugated with Alexa Fluor 488), Plin2 (secondary antibody conjugated with Alexa Fluor 594), and Vimentin (secondary antibody conjugated with Alexa Fluor 647) and quantified for frequency of Plin2+ astrocytes (Iba1−, Vim+) and microglia (Iba1+) in the periventricular region. […]

[4] = test system: Plin2+ periventricular glia; assay: Periventricular Plin2+ and TAF-positive cells (lateral ventricle), HFD INK-ATTAC mice; conditions: AP20187 vs vehicle
Procedure: as §1
as §2, with “1). For TAF staining, Fluorescein-Avidin in PBS (1:500; #A-2011, Vector Lab) was applied to each sample for 20 minutes. Slides were washed 3 times in PBS, which was followed by FISH for TAF detection.” for “1).”
as §3

[5] = test system: brain cell populations; assay: CyTOF of brain cell populations, INK-ATTAC mice; conditions: AP vs vehicle
Procedure: as §1
This technique uniquely combines time-of-flight mass spectrometry with metal-labelling technology to enable detection of up to 40 protein targets per cell. A panel of antibodies based on surface markers, transcription factors, and cytokines (see Table 1) was designed for brain mass cytometry/cytometry by time of flight (CyTOF). Each antibody was tagged with a rare metal isotope and its function verified by mass cytometry according to the factory manual (Multi Metal labelling Kits, Fluidigm, CA). A CyTOF-2 mass cytometer (Fluidigm, South San Francisco, Calif.) was used for data acquisition. Acquired data were normalized based on normalization beads (Ce140, Eu151, Eu153, Ho165, and Lu175). A single brain hemisphere was dissociated into a single-cell suspension using brain tissue dissociation kits (Adult Brain Dissociation Kit, Miltenyi Biotec Inc., CA). Collected cells were incubated with metal-conjugated antibodies and, for testing intracellular proteins, including transcription factors and cytokines, fixation and permeabilization was conducted according to the manufacturer's instructions (Transcription Factor Staining Buffer Set, eBioscience, San Diego, Calif.). CyTOF data were analyzed by Cytobank (Santa Clara, Calif.).

## CC[C@H](C(=O)N1CCCC[C@H]1C(=O)O[C@H](CCc1ccc(OC)c(OC)c1)c1cccc(OCC(=O)NCC(CNC(=O)COc2cccc([C@@H](CCc3ccc(OC)c(OC)c3)OC(=O)[C@@H]3CCCCN3C(=O)[C@@H](CC)c3cc(OC)c(OC)c(OC)c3)c2)CN(C)C)c1)c1cc(OC)c(OC)c(OC)c1 [AP]
[1]
  G-Csf in the bloodstream: down-regulated
  Il-1β in the bloodstream: down-regulated
  Kc/Cxcl1 in the bloodstream: down-regulated
  Mcp-1 in the bloodstream: down-regulated
  Mig in the bloodstream: down-regulated
  Tnf-α in the bloodstream: down-regulated
[2]
  TAF in cortex, cerebellum, hippocampus: No differences
  p16 in cortex, cerebellum, hippocampus: No differences
  p21 in cortex, cerebellum, hippocampus: No differences
  γ-H2A.X in cortex, cerebellum, hippocampus: No differences
[3]
  % of NeuN-pos cells with 2 or more TAF (TAF positive neurons), basomedial layer of the amygdala: significant decrease
  mean number of TAF in NeuN-pos cells, basomedial layer of the amygdala: significantly reduced
[3]; listed as AP20187
  % of NeuN-pos cells with 2 or more TAF (TAF positive neurons), basomedial layer of the amygdala: significantly reduced
[4]
  Plin2+ cells (cells containing lipid droplets) in the periventricular area: significant reduction
  cells bearing senescent markers (NeuN negative, TAF-positive cells) in the periventricular region: significant reduction
[4]; listed as AP20187
  Plin2+ cells (cells containing lipid droplets) in the periventricular area: reduced lipid droplets
[5]; HFD INK-ATTAC mice
  ependymal cells (CD133+), CyTOF: significantly increased; also recorded: replenish
  immature neurons (Dcx+), CyTOF: significantly increased; also recorded: partial recovery
  neuronal precursor cells (Nestin+), CyTOF: replenish; also recorded: significantly increased
[5]; INK-ATTAC mice
  frequency of endothelial cells (CD146+), CyTOF: did not alter
  frequency of mature neurons (NeuN+), CyTOF: did not alter
  frequency of microglia (CD11b+, CD45-), CyTOF: did not alter
  frequency of oligodendrocytes (CNPase+ or OSP+), CyTOF: did not alter
